According to PMC3961306, “Comparison of the Cancer Gene Targeting and Biochemical Selectivities of All Targeted Kinase Inhibitors Approved for Clinical Use” (PLoS ONE, 2014):

How the values were obtained:
Test in all cases: Kinase profiling in a biochemical assay panel (mobility shift assays and ELISA), %-inhibition at 1 μM; selectivity entropy
[1] = biological target: panel of more than 300 wild-type and mutant kinases (313 kinase panel) (Homo sapiens, UniProt Q9H422); conditions: kinase HIPK3; compound at 1 μM
[2] = biological target: panel of more than 300 wild-type and mutant kinases (313 kinase panel) (Homo sapiens, UniProt Q08345); conditions: kinase DDR1; compound at 1 μM
[3] = biological target: panel of more than 300 wild-type and mutant kinases (313 kinase panel) (Homo sapiens, UniProt P07949, Y791F); conditions: kinase RET(Y791F); 1 μM
panel of more than 300 wild-type and mutant kinases (313 kinase panel) (Homo sapiens, UniProt P07949, Y791F), sequence (P07949 29-1114 Y791F): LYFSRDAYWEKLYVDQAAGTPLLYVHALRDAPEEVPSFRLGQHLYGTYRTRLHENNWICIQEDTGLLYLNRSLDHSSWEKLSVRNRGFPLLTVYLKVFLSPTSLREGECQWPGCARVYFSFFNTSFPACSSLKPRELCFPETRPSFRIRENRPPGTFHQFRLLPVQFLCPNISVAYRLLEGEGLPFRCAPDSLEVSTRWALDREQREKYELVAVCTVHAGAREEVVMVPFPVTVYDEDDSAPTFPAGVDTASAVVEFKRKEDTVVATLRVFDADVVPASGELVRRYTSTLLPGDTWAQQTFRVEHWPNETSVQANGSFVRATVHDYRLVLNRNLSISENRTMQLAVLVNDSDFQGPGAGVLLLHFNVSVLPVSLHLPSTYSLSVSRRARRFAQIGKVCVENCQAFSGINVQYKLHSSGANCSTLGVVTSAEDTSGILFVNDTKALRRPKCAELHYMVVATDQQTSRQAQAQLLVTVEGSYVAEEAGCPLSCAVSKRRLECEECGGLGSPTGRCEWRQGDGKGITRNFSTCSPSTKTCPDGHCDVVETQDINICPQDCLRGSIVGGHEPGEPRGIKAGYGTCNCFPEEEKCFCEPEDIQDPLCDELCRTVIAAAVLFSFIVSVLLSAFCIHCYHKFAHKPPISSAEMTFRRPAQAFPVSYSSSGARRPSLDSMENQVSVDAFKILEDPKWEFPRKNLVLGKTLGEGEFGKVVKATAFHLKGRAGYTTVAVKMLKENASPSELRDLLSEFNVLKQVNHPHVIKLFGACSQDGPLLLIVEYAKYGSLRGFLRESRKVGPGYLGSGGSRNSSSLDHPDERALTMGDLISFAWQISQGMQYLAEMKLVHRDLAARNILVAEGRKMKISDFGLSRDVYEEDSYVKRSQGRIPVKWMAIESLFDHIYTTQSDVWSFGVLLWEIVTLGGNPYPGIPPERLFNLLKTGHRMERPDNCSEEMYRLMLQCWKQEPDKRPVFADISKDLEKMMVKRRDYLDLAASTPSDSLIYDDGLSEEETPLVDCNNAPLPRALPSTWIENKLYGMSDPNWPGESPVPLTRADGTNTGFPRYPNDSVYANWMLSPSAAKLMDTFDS

[4] = biological target: T1, panel of more than 300 wild-type and mutant kinases (313 kinase panel) (Homo sapiens, UniProt P29323); conditions: kinase EPHB2; compound at 1 μM
T1 sequence (P29323 19-1055): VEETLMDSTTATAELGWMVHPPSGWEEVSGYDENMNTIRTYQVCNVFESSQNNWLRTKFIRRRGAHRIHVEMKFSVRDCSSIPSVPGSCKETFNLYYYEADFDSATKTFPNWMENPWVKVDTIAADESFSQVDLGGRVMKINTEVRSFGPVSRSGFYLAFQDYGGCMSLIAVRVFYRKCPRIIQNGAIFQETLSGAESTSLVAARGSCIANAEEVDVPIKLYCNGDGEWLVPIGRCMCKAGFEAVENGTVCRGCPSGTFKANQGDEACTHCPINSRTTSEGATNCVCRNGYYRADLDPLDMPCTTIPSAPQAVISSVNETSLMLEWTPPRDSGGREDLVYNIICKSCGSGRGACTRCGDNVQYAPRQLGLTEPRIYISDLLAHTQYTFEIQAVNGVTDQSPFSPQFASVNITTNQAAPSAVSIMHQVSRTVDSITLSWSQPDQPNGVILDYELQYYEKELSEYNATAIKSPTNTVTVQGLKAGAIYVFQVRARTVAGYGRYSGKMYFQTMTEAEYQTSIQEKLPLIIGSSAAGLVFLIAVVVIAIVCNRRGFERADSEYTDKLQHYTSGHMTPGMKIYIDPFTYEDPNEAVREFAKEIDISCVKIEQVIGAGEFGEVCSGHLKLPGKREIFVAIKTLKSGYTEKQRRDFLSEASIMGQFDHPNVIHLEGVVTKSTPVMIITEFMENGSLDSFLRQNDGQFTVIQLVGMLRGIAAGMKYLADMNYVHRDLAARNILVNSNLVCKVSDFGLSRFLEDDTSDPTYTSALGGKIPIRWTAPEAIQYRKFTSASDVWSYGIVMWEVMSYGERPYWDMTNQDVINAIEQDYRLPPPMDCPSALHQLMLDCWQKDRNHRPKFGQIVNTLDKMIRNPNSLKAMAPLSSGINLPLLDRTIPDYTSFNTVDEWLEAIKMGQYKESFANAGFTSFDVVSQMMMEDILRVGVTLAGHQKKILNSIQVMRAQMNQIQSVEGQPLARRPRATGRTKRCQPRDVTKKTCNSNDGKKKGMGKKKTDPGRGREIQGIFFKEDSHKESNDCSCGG

[5] = biological target: panel of more than 300 wild-type and mutant kinases (313 kinase panel) (Homo sapiens, UniProt P16234, V561D); conditions: kinase PDGFRα(V561D); 1 μM
panel of more than 300 wild-type and mutant kinases (313 kinase panel) (Homo sapiens, UniProt P16234, V561D), sequence (P16234 24-1089 V561D): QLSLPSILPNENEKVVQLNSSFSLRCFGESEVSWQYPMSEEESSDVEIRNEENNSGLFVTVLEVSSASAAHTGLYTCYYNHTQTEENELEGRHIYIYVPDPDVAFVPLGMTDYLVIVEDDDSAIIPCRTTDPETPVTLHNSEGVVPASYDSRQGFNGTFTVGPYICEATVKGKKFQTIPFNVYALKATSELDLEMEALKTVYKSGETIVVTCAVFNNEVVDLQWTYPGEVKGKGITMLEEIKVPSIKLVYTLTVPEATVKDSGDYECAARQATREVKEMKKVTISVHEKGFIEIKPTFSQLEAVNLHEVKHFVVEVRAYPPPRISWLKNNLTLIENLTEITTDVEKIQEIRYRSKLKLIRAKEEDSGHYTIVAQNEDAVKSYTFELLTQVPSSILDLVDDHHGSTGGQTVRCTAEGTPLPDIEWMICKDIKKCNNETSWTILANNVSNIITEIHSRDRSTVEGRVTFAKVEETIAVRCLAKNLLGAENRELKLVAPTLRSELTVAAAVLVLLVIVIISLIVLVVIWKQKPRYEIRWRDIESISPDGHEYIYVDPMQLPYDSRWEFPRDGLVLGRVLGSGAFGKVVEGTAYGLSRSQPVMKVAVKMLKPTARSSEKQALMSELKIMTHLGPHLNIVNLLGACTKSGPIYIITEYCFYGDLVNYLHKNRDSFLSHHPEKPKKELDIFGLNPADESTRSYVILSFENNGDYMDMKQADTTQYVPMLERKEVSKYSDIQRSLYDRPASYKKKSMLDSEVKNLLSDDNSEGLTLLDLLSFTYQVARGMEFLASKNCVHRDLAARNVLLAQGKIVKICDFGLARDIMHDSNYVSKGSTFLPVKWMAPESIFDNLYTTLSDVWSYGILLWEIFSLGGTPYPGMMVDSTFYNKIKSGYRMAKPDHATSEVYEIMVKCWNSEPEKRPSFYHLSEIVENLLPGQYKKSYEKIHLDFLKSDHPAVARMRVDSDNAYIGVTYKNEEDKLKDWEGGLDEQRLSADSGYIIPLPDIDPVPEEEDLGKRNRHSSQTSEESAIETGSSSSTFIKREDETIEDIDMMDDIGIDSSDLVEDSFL

[6] = biological target: panel of more than 300 wild-type and mutant kinases (313 kinase panel) (Homo sapiens, UniProt Q15303)
panel of more than 300 wild-type and mutant kinases (313 kinase panel) (Homo sapiens, UniProt Q15303), sequence (Q15303 26-1308, change not shown): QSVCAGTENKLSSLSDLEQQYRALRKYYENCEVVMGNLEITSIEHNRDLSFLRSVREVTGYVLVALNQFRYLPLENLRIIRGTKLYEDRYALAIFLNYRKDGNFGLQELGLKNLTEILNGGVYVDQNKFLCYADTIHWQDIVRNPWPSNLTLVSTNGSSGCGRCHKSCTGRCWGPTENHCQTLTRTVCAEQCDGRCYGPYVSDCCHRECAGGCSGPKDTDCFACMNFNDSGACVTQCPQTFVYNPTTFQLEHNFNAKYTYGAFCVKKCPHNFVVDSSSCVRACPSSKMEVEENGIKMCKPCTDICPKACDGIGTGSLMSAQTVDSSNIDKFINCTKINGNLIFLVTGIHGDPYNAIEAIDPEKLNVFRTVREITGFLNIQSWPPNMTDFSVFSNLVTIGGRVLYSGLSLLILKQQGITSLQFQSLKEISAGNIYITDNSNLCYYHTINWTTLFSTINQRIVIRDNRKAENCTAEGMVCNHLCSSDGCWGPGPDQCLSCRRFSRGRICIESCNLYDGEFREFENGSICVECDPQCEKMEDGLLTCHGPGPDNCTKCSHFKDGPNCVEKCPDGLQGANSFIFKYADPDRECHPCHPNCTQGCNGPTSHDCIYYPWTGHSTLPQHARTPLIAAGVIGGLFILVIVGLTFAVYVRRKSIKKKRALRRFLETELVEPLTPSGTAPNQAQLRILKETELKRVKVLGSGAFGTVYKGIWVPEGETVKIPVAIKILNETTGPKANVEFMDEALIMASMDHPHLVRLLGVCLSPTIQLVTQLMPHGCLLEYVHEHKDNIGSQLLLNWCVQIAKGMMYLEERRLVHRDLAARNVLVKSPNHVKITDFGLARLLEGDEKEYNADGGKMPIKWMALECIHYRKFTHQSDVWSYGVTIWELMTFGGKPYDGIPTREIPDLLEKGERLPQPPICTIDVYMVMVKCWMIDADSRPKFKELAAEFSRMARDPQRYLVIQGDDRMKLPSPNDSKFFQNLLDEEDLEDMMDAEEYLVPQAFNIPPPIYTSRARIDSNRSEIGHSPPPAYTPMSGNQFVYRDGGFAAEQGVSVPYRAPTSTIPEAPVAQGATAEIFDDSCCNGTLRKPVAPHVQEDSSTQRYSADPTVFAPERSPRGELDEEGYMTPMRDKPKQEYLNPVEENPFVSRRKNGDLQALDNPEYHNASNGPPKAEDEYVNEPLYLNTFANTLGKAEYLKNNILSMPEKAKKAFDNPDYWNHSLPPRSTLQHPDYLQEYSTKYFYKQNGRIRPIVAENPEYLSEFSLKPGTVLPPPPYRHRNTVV

[7] = biological target: panel of more than 300 wild-type and mutant kinases (313 kinase panel) (Homo sapiens, UniProt Q9Y463); conditions: kinase DYRK1B; compound at 1 μM
panel of more than 300 wild-type and mutant kinases (313 kinase panel) (Homo sapiens, UniProt Q9Y463), sequence (Q9Y463 whole entry, change not shown): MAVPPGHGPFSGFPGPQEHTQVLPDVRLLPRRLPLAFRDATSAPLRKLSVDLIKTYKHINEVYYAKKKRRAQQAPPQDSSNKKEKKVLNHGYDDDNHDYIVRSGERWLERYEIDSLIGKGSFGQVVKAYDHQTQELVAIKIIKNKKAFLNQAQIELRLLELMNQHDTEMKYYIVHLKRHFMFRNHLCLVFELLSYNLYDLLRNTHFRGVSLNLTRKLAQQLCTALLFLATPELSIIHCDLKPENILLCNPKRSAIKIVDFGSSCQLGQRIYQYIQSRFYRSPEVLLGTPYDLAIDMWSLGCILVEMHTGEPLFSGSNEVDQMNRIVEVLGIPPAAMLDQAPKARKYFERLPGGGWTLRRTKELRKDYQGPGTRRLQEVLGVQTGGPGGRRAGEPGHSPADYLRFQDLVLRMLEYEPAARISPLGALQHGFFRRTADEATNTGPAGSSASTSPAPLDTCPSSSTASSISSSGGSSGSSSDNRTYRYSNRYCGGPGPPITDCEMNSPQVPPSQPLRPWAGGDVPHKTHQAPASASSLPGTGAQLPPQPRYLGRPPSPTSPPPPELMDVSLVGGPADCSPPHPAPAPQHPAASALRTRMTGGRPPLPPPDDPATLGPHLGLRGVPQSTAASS

[8] = biological target: panel of more than 300 wild-type and mutant kinases (313 kinase panel) (Homo sapiens, UniProt P07332); conditions: kinase FES; compound at 1 μM
[9] = biological target: panel of more than 300 wild-type and mutant kinases (313 kinase panel) (Homo sapiens, UniProt P19525); conditions: kinase PKR; 1 μM
[10] = biological target: panel of more than 300 wild-type and mutant kinases (313 kinase panel) (Homo sapiens, UniProt P19784)
panel of more than 300 wild-type and mutant kinases (313 kinase panel) (Homo sapiens, UniProt P19784), sequence (P19784 whole entry, change not shown): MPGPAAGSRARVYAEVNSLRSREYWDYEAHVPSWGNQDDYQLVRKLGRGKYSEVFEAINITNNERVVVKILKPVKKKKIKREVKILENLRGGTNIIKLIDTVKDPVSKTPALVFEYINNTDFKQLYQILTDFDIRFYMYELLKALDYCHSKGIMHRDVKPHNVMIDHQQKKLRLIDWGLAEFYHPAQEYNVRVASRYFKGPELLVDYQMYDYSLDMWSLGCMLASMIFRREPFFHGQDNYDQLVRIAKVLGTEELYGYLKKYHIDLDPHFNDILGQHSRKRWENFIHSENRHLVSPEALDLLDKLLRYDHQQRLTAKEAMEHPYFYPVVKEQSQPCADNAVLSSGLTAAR

[11] = biological target: panel of more than 300 wild-type and mutant kinases (313 kinase panel) (Homo sapiens, UniProt Q13177); conditions: kinase PAK2; 1 μM

| SMILES | %-inhibition of HIPK3 [1] [%] | %-inhibition of DDR1 [2] [%] | %-inhibition of RET(Y791F) [3] [%] | %-inhibition of EPHB2 [4] [%] | %-inhibition of PDGFRα(V561D) [5] [%] | %-inhibition of HER4 ([6]; kinase HER4, compound at 1 μM) [%] | %-inhibition of DYRK1B [7] [%] | %-inhibition of FES [8] [%] | %-inhibition of PKR [9] [%] | %-inhibition, CK2α2/β ([10]; kinase CK2α2/β, 1 μM compound) [%] | %-inhibition of PAK2 [11] [%] | %-inhibition, CK2α2/β ([10]; 1 µM) [%] | %-inhibition of HER4 ([6]; 1 µM) [%] |
| --- | --- | --- | --- | --- | --- | --- | --- | --- | --- | --- | --- | --- | --- |
| CC(C)(C)c1nc(-c2cccc(NS(=O)(=O)c3c(F)cccc3F)c2F)c(-c2ccnc(N)n2)s1 [dabrafenib] | 65 | 96 | 36 | -3.38 | 51 | 23 | 29 | 2.29 | – | – | – | – | – |
| CCCS(=O)(=O)Nc1ccc(F)c(C(=O)c2c[nH]c3ncc(-c4ccc(Cl)cc4)cc23)c1F [vemurafenib] | -6 | 52 | 30 | -2.11 | 56 | 11 | -1.74 | 18 | -0.765 | -6.56 | 13 | – | – |
| Cc1nc(Nc2ncc(C(=O)Nc3c(C)cccc3Cl)s2)cc(N2CCN(CCO)CC2)n1 [dasatinib] | – | – | – | – | – | 103 | – | – | 3 | -4.67 | 0.254 | – | – |
| C[C@@H](Oc1cc(-c2cnn(C3CCNCC3)c2)cnc1N)c1c(Cl)ccc(F)c1Cl [crizotinib] | -6 | 97 | – | 57 | 30 | -18 | -3 | – | 6 | -10 | 5 | – | – |
| Cc1ccc(C(=O)Nc2ccc(CN3CCN(C)CC3)c(C(F)(F)F)c2)cc1C#Cc1cnc2cccnn12 [ponatinib] | 27 | – | 102 | 102 | 103 | 101 | 2 | – | 19 | – | – | – | – |
| COc1cc(Nc2c(C#N)cnc3cc(OCCCN4CCN(C)CC4)c(OC)cc23)c(Cl)cc1Cl [bosutinib] | -3.66 | 97 | 93 | 95 | 64 | 102 | -5 | – | -13 | – | – | – | – |
| Cc1ccc(Nc2nccc(N(C)c3ccc4c(C)n(C)nc4c3)n2)cc1S(N)(=O)=O [pazopanib] | 3 | 97 | 94 | 16 | – | 16 | -3 | – | – | 0.17 | 3.51 | – | – |
| CCN(CC)CCNC(=O)c1c(C)[nH]c(/C=C2\C(=O)Nc3ccc(F)cc32)c1C [sunitinib] | – | – | – | 81 | – | – | – | – | – | 25 | – | – | – |
| COc1cc2c(Nc3ccc(Br)cc3F)ncnc2cc1OCC1CCN(C)CC1 [vandetanib] | -11 | 100 | – | 96 | 100 | – | -2.71 | -3.7 | -1.09 | -7 | -2 | – | – |
| COc1cc2nccc(Oc3ccc(NC(=O)C4(C(=O)Nc5ccc(F)cc5)CC4)cc3)c2cc1OC [cabozantinib] | 67 | 102 | – | 96 | 99 | 23 | -5 | 39 | -4.3 | 9 | -5.44 | – | – |
| N#CC[C@H](C1CCCC1)n1cc(-c2ncnc3[nH]ccc23)cn1 [ruxolitinib] | 2 | – | – | 5.54 | 18 | – | 8 | 3 | -6 | – | 3.37 | -7 | -1.9 |
